Data published in patent US10105357B2, “Indication of antibiotic drugs for preparation of cancer inhibition pharmaceutical composition” (LAUNX BIOMEDICAL CO., LTD., priority 2014, dated 2018).
Structures can show the parent of a compound that is named as a salt. Positions of bridges follow the written chain, without caps; N, C: chain ends. Non-standard residues stand in square brackets, D forms with d. Residues, ends and D or L forms follow the SMILES beside them. *: point of attachment. Ileψ(thiazoline)Cys = CC[C@H](C)[C@H](N)C1=N[C@H](C(=O)*)CS1; dOrn = NCCC[C@@H](N)C(=O)O

Columns and labels:
Assay type in all cases: cell-based, human
cancer cell lines = assay: Cell viability analysis (WST-1) on cancer cell lines; conditions: drug 10 μM, 72 hours, WST-1; Table 3
[1] = system: HI650 (Lung Adenocarcinoma); assay: Cell viability analysis, lung cancer HI650; conditions: Homo sapiens, NCI-H1650, 72 h, read-out: cell viability (survival rate), H1650, drug 10 μM, 72 hours, WST-1, OD450 nm
[2] = system: A549 (Lung Adenocarcinoma); assay: Cell viability analysis, lung cancer A549; conditions: Homo sapiens, A549, 72 h, read-out: cell viability (survival rate), A549, drug 10 μM, 72 hours, WST-1, OD450 nm
[3] = system: AGS (Gastric Adenocarcinoma); assay: Cell viability analysis, gastric cancer AGS; conditions: Homo sapiens, 72 h, read-out: cell viability (survival rate), AGS, drug 10 μM, 72 hours, WST-1, OD450 nm
[4] = system: MKN-45 (Gastric Adenocarcinoma); assay: Cell viability analysis, gastric cancer MKN-45; conditions: Homo sapiens, MKN-45, 72 h, read-out: cell viability (survival rate), MKN-45, drug 10 μM, 72 hours, WST-1, OD450 nm
[5] = system: HepG2 (Hepatocellular Carcinoma); assay: Cell viability analysis, hepatic cancer HepG2; conditions: Homo sapiens, HepG2, 72 h, read-out: cell viability (survival rate), HepG2, drug 10 μM, 72 hours, WST-1, OD450 nm
[6] = system: LoVo (Colorectal Adenocarcinoma); assay: Cell viability analysis, colon cancer LoVo; conditions: Homo sapiens, LoVo, 72 h, read-out: cell viability (survival rate), LoVo, drug 10 μM, 72 hours, WST-1, OD450 nm
[7] = system: A375 (Amelanotic Melanoma); assay: Cell viability analysis, skin cancer A375; conditions: Homo sapiens, A-375, 72 h, read-out: cell viability (survival rate), A375, drug 10 μM, 72 hours, WST-1, OD450 nm
[8] = system: HeLa (Cervix Adenocarcinoma); assay: Cell viability analysis, cervical cancer HeLa; conditions: Homo sapiens, HeLa, 72 h, read-out: cell viability (survival rate), HeLa, drug 10 μM, 72 hours, WST-1, OD450 nm
[9] = system: PC3 (p53−) (Prostate Adenocarcinoma); assay: Cell viability analysis, prostate cancer PC3; conditions: Homo sapiens, 72 h, read-out: cell viability (survival rate), PC3, drug 10 μM, 72 hours, WST-1, OD450 nm
[10] = system: TSGH-8301 (Urinary Bladder Carcinoma); assay: Cell viability analysis, bladder cancer TSGH-8301; conditions: Homo sapiens, 72 h, read-out: cell viability (survival rate), TSGH, drug 10 μM, 72 hours, WST-1, OD450 nm
[11] = system: MCF7 (Mammary Gland, Adenocarcinoma); assay: Cell viability analysis, breast cancer MCF7; conditions: Homo sapiens, MCF7, 72 h, read-out: cell viability (survival rate), MCF7, drug 10 μM, 72 hours, WST-1, OD450 nm
[12] = system: HL-60 (Acute Promyelocytic Leukemia); assay: Cell viability analysis, leukemia HL-60; conditions: Homo sapiens, HL-60, 72 h, read-out: cell viability (survival rate), HL-60, drug 10 μM, 72 hours, WST-1, OD450 nm

Structure (SMILES) | inhibition effect on different cancer cell lines (cancer cell lines) | viability at 10 µM [1] | viability at 10 µM [2] | viability at 10 µM [3] | viability at 10 µM [4] | viability at 10 µM [5] | viability at 10 µM [6] | viability at 10 µM [7] | viability at 10 µM [8] | viability at 10 µM [9] | viability at 10 µM [10] | viability at 10 µM [11] | viability at 10 µM [12]
Nc1ccc(S(=O)(=O)Nc2ncccn2)cc1 [Sulfadiazine] | significant inhibition effect | 69.2% | 38.1% | 91.8% | 44.4% | 114% | 93.6% | 79.5% | 43.7% | 70.1% | 80.4% | 37.2% | 106%
Cc1nnc(NS(=O)(=O)c2ccc(N)cc2)s1 [Sulfamethizole (Proklar), Sulfamethizole] | significant inhibition effect | 99.2% | 90.4% | 86.6% | 84.6% | 95% | 86.4% | 99.1% | 105% | 86% | 114% | 100% | 104%
CC[C@H](C)[C@H](N)C1=N[C@H](C(=O)N[C@@H](CC(C)C)C(=O)N[C@H](CCC(=O)O)C(=O)N[C@H](C(=O)N[C@H]2CCCCNC(=O)[C@H](CC(N)=O)NC(=O)[C@@H](CC(=O)O)NC(=O)[C@H](Cc3cnc[nH]3)NC(=O)[C@@H](Cc3ccccc3)NC(=O)[C@H]([C@@H](C)CC)NC(=O)[C@@H](CCCN)NC2=O)[C@@H](C)CC)CS1 [Bacitracin] ({Ileψ(thiazoline)Cys}-L[dE]IK[dOrn]I[dF]H[dD]N; lactam 4-C) | significant inhibition effect | 65.4% | 51.4% | 61.4% | 46.9% | 86.4% | 69.9% | 54.7% | 68.4% | 70% | 68.3% | 41.4% | 85.9%
CCC(C)(C)c1ccc(CC(C)CN2C[C@@H](C)O[C@@H](C)C2)cc1 (stereo partly shown) [Amorolfine Hydrochloride] | significant inhibition effect | 79.6% | 104% | 94.4% | 65.1% | 91.6% | 99.7% | 98.6% | 84.6% | 104% | 88.5% | 104% | 104%
